Literature values as cited in US8795652B1, “Methods and compositions to treat myocardial conditions” (Abbott Cardiovascular Systems Inc., priority 2003, dated 2014).

What was measured:
[1] = tested on: ductus arteriosus

SMILES	O2 solubility at 37° C. [V %]	arterial oxygen saturation ([1]; four neonates, infused prior to and during surgery)	side effects ([1]; in vivo)
FC(F)(F)C(F)(F)C(F)(F)C(F)(F)CCC(F)(F)C(F)(F)C(F)(F)C(F)(F)F [F-44E, 1,2-bis(perfluorobutyl)ethane]	50		
FC1(F)C(F)(F)C(F)(F)C2(F)C(F)(F)C(F)(F)C(F)(F)C(F)(F)C2(F)C1(F)F (stereo not shown) [FDC, Perfluorodecalin]	45		
CCCCC[C@H](O)/C=C/[C@H]1[C@H](O)CC(=O)[C@@H]1C/C=C\CCCC(=O)O [PGE2, prostaglandin E2]		immediate and persistent rise	No major side effects occurred, except for pyrexia in two infants
